The text below walks through data of patent US6177475A, “Methods of using integrin modulators for treatment of inflammation” (priority 1997, dated 2001).

The subject of experiment [1] is VLA-4 (Jurkat cells, VCAM-1). As to the kind of experiment: VLA-4-dependent adhesion of Jurkat cells to VCAM-1. The format is cell-based. Particulars: Homo sapiens, 1 h, 37° C. As for the experimental part: Microtiter plates were coated with ligands of the integrin VLA-4, i.e., recombinant human VCAM-1 (500 nanograms per well) or the fragment of connective segment of human fibronectin (CS-1), covalently attached to ovalbumin (5 micrograms per well) by overnight incubation (4° C.) with solutions of the proteins in phosphate-buffered saline (PBS). The plates were blocked with 1% bovine serum albumin (BSA) in Hanks' buffered salt solution (HBSS-BSA). The cells (Jurkat or human melanoma MV3) were labeled with the fluorescent dye 5-chloromethylfluorescein diacetate (CMFDA) and introduced into the wells of the plates (10^5 cells per well) together with varying amounts of Ajoene. After incubation at 37° C. for 1 h, the unbound cells were removed by aspiration and the wells washed four times with HBSS-BSA. Thereafter, the bound cells were lysed with 0.5% Triton X-100, and the fluorescence was measured using a Cytofluor 2300 plate reader. The number of adherent cells was calculated from a standard dilution curve of Triton X-100 lysates of the CMFDA-labeled cells.

The next experiment relates to HIV-1 strain IIIB. As to the kind of experiment: Protection of MT-4 cells against infection with free HIV (PCR for proviral DNA). The format is cell-based. The note with it: Human immunodeficiency virus 1, IIIB, MT4, 16 hours. As for the experimental part: The effect of Ajoene in protecting against HIV infection was evaluated using polymerase chain reaction (PCR) analysis which recognized amplified DNA sequences of HIV gag gene. MT-4 cells were used as target cells and strain IIIB of HIV-1 was used as inoculate. Serial dilutions of Ajoene or an equivalent volume of its vehicle were added to MT-4 cells, followed by addition of a sufficient amount of free virus (≥10^3 particles per cell). The protective effect of Ajoene was monitored by examining for the absence or presence of proviral HIV DNA in target cells 16 hours after the inoculation.

Experiment [2] has as its system 111In-labeled neutrophils. As to the kind of experiment: Neutrophil recruitment to inflamed joints in rat adjuvant arthritis. The format is in vivo. The note with it: 50 mg/kg i.v.; for Accumulation of 111In-labeled Neutrophils (mean ± SEM): 2 h. As for the experimental part:
Rat adjuvant arthritis is characterized by integrin-mediated migration of ^51 Cr-labeled monocytes and ^111 In-labeled neutrophils into the inflamed synovium, which attains maximum between days 14 and 21 after the immunization. This model of human rheumatoid arthritis was used to assess in vivo effects of Ajoene on integrins that are known to be modulated by Ajoene in vitro.
Adjuvant arthritis was induced in 6-8 week old inbred male Lewis rats by immunization on the lower back with 0.5 mg Mycobacterium butyricum (Difco Laboratories, Inc., Detroit, Mich.) in 0.05 ml mineral oil in two sites subcutaneously at the base of the tail. All the animals developed polyarticular arthritis between days 11 and 13 after immunization. For clinical scoring, 0-4 points were assigned per limb and tail, based on the severity of erythema, swelling, and limitation of movement (the maximal possible score was 20).
Rat blood monocytes and neutrophils for migration studies were obtained by the hydroxyethyl starch (HES) exchange transfusion technique. The total blood volume of a donor rat was exchanged using 50 ml 6% HES solution in saline (DuPont Chemical Co., Dorval, Canada). After recovery of 40-45 ml blood/HES perfusate, the red cells were allowed to sediment (1 g) and the leukocyte-rich plasma was harvested. The leukocytes were recovered by centrifugation, resuspended in calcium-magnesium-free Tyrode's solution supplemented with 10% platelet-poor plasma (TS-PPP), and centrifuged in a discontinuous 63%/74% gradient of isotonic Percoll (Pharmacia Fine Chemicals, Dorval, Canada). The top layer, containing mononuclear cells (MN), and the cells in the 63%/74% interface, containing neutrophils, were collected, washed, and resuspended in TS-PPP. To obtain purified monocytes, the osmolality of the MN suspension was increased by adding 9% NaCl, and the suspension was centrifuged in a 40%/55%/58% Percoll gradient; monocytes were harvested at 40%/55% and […] interfaces, washed, and resuspended in TS-PPP.
Thereafter, monocytes (10^7 cells/ml) were labeled with 75 microCurie/ml of Na2^51 CrO4 (Amersham, Oakville, Canada) at 37° C. for 30 min. Neutrophils (10^7 cells/ml) were labeled with 1 microCurie/ml of ^111 In oxine (Amersham) for 10 min. Both populations were washed to remove excess labeled material and checked for viability and purity. The viability of either cell population used in the experiments was in excess of 95% (as double-checked by Trypan blue exclusion and neutral red staining). The separation procedure described above ordinarily produced populations that contained no less than 90% monocytes and no less than 95% neutrophils. […]

As a reminder, the IC50 is the midpoint of a concentration-inhibition curve. As for `C=CCSSC=CC[S+]([O-])CC=C` (stereo not shown) [Ajoene, 4,5,9-trithiadodeca-1,6,11-triene-9-oxide], the IC50 in experiment [1] stood at 250 µM; with HIV-1 strain IIIB it was 5 µM. Also, the IC100 in the experiment with HIV-1 strain IIIB (read-out: minimal dose completely preventing HIV infection) was found to be 17 µM. Also, the “inhibition of neutrophil recruitment to the talar joints” value in experiment [2] is ~ 50%. Also, the “Accumulation of 111In-labeled Neutrophils (mean ± SEM)” value in experiment [2] (talar joint, P < 0.001) is 15,052 cpm per sample; in experiment [2] (tarsal joint, P = 0.085) it was 7,353 cpm per sample; in experiment [2] (vertebral joints, P = 0.089), 3,658 cpm per sample.
